# Laboratory results: US20130053395A1, “PYRAZOLOPYRIDINE KINASE INHIBITORS” (VERTEX PHARMACEUTICALS INCORPORATED, priority 2010, published 2013)
# Key:
# PKC theta kinase = PKC theta kinase (Homo sapiens, UniProt Q04759); experiment: PKC theta kinase coupled-enzyme (NADH) Ki assay; assay type: biochemical; details: 18 nM PKC theta, 240 μM ATP, 30° C., initial rate at 340 nM
# Procedure: An assay buffer solution was prepared which consisted of 100 mM HEPES (pH 7.5), 10 mM MgCl2, 25 mM NaCl, 0.1 mM EDTA and 0.01% Brij. An enzyme buffer containing reagents to final assay concentrations of 0.00001% Triton X-100, 200 μg/mL Phosphatidylserine, 20 μg/mL Diacylglycerol, 360 μM NADH, 3 mM phosphoenolpyruvate, 70 μg/mL pyruvate kinase, 24 μg/mL lactate dehydrogenase, 2 mM DTT, 100 μM substrate peptide ([…] SEQ ID NO. 1) and 18 nM PKC theta kinase was prepared in assay buffer. To 60 μL of this enzyme buffer, in a 384 well plate, was added 2 μL of VRT stock solution in DMSO. The mixture was allowed to equilibrate for 10 mins at 30° C. The enzyme reaction was initiated by the addition of 5 μL stock ATP solution prepared in assay buffer to a final assay concentration of 240 μM. Initial rate data was determined from the rate of change of absorbance at 340 nm (corresponding to stoichiometric consumption of NADH) using a Molecular Devices Spectramax plate reader (Sunnyvale, Calif.) over 15 mins at 30° C. For each Ki determination 12 data points covering the VRT concentration range of 0-20 μM were obtained in duplicate (DMSO stocks were prepared from an initial 10 mM VRT stock with subsequent 1:2 serial dilutions). Ki values were calculated from initial rate data by non-linear regression using the Prism software package (Prism 4.0a, Graphpad Software, San Diego, Calif.).
# PKC delta kinase = PKC delta kinase (Homo sapiens, UniProt Q05655); experiment: PKC delta kinase coupled-enzyme (NADH) Ki assay; assay type: biochemical; details: 46 nM PKC delta, 150 μM ATP, 30° C., initial rate at 340 nM
# Procedure: An assay buffer solution was prepared which consisted of 100 mM HEPES (pH 7.5), 10 mM MgCl2, 25 mM NaCl, 0.1 mM EDTA and 0.01% Brij. An enzyme buffer containing reagents to final assay concentrations of 0.002% Triton X-100, 200 μg/mL Phosphatidylserine, 20 μg/mL Diacylglycerol, 360 μM NADH, 3 mM phosphoenolpyruvate, 70 μg/mL pyruvate kinase, 24 μg/mL lactate dehydrogenase, 2 mM DTT, 150 μM substrate peptide ([…] SEQ ID NO. 2) and 46 nM PKC delta kinase was prepared in assay buffer. To 16 μL of this enzyme buffer, in a 384 well plate, was added 1 μL of VRT stock solution in DMSO. The mixture was allowed to equilibrate for 10 mins at 30° C. The enzyme reaction was initiated by the addition of 16 μL stock ATP solution prepared in assay buffer to a final assay concentration of 150 μM. Initial rate data was determined from the rate of change of absorbance at 340 nm (corresponding to stoichiometric consumption of NADH) using a Molecular Devices Spectramax plate reader (Sunnyvale, Calif.) over 15 mins at 30° C. For each Ki determination 12 data points covering the VRT concentration range of 0-20 μM were obtained in duplicate (DMSO stocks were prepared from an initial 10 mM VRT stock with subsequent 1:2 serial dilutions). Ki values were calculated from initial rate data by non-linear regression using the Prism software package (Prism 4.0a, Graphpad Software, San Diego, Calif.).
# PKC theta kinase, sequence (Q04759 whole entry): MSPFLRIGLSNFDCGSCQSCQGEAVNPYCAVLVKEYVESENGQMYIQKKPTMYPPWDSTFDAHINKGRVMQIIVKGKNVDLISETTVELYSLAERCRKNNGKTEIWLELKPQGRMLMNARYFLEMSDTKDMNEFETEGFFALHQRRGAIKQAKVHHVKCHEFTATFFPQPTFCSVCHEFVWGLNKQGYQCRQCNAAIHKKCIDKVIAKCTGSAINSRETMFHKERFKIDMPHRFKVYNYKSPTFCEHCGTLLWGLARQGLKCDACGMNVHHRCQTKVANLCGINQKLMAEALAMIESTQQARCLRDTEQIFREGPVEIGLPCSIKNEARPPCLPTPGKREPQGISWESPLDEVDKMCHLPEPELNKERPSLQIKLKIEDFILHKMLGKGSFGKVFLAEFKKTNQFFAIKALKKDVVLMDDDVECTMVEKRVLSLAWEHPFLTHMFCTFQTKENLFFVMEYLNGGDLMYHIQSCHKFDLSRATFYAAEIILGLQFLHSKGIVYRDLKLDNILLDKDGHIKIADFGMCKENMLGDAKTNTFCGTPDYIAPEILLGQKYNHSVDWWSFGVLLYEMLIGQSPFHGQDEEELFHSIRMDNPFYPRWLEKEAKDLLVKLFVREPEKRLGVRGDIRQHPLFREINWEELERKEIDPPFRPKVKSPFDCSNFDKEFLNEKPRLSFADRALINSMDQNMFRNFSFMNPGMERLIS
# PKC delta kinase, sequence (Q05655 whole entry): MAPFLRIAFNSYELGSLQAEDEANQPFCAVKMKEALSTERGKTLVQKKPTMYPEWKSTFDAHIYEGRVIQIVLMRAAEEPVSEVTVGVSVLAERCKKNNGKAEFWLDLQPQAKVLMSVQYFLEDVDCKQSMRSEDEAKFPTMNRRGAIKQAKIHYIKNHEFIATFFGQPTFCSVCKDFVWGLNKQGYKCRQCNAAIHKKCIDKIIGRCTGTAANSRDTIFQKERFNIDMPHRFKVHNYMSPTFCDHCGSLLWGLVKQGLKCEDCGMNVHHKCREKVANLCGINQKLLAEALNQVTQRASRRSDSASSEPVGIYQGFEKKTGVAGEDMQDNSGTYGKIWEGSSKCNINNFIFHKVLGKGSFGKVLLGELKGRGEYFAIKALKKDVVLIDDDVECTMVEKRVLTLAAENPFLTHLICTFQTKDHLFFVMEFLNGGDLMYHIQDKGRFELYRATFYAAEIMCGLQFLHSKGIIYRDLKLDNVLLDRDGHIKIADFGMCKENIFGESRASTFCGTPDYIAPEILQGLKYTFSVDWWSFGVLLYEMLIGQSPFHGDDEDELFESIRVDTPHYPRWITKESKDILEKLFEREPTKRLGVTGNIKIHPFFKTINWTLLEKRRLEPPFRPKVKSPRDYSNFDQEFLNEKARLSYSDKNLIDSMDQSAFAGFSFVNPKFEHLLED
Structure (SMILES),Ki (PKC theta kinase) [nM],Ki (PKC delta kinase) [nM]
CC(C)C[C@@H]1CN(c2nc(-c3n[nH]c4ncccc34)c(F)cc2F)CCN1 [Compound 7],< 50,
CCC(O)(CC)[C@@H]1CN(c2nc(-c3n[nH]c4ncccc34)c(F)cc2F)CCN1 [Compound 3],< 1,< 500
"CC(C)C[C@@H]1CN(c2nc(-c3n[nH]c4ncccc34)c(C#N)cc2F)CCN1 [Compound 11, (R)-5-fluoro-6-(3-isobutylpiperazin-1-yl)-2-(1H-pyrazolo[3,4-b]pyridin-3-yl)nicotinonitrile]",< 2800,> 1250
OC[C@@H]1CN(c2nc(-c3n[nH]c4ncccc34)c(F)cc2Cl)CCN1 [Compound 9],< 50,< 50
CC(C)(O)[C@@H]1CN(c2nc(-c3n[nH]c4ncccc34)c(F)cc2Cl)CCN1 [Compound 5],< 1,< 50
CC(C)C[C@@H]1CN(c2nc(-c3n[nH]c4ncccc34)c(F)cc2Cl)CCN1 [Compound 8],< 50,

# Now from value to compound:
Ki (PKC theta kinase) [nM],Ki (PKC delta kinase) [nM],Structure (SMILES)
< 1,< 50,OC1(C2CN(c3nc(-c4n[nH]c5ncccc45)c(F)cc3Cl)CCN2)CCC1 (centres unmarked) [Compound 6]
< 1,< 500,OC1(C2CN(c3nc(-c4n[nH]c5ncccc45)c(F)cc3F)CCN2)CCC1 (centres unmarked) [Compound 2]
< 500,> 1250,OC[C@@H]1CN(c2nc(-c3n[nH]c4ncccc34)c(F)cc2F)CCN1 [Compound 10]
< 1,< 50,OC1([C@@H]2CN(c3nc(-c4n[nH]c5ncccc45)c(F)cc3Cl)CCN2)CC1 [Compound 4]
< 50,< 500,"CC(C)(O)[C@@H]1CN(c2nc(-c3n[nH]c4ncccc34)c(F)cc2F)CCN1 [Compound 1, (S)-2-(4-(3,5-difluoro-6-(1H-pyrazolo[3,4-b]pyridin-3-yl)pyridin-2-yl)piperazin-2-yl)propan-2-ol]"
